Assay results taken from article PMC4363603, “Inhibitory Effects of Chemical Compounds Isolated from the Rhizome of Smilax glabra on Nitric Oxide and Tumor Necrosis Factor-α Production in Lipopolysaccharide-Induced RAW264.7 Cell” (Evidence-based Complementary and Alternative Medicine : eCAM, 2015).

Tests used:
Type in all cases: cell-based, mouse
RAW264.7 cells = assay: MTT cell viability (cytotoxicity) assay; conditions: 24 h incubation, concentration inhibiting 10% of cell proliferation, improved Karber methodology, defined as highest noncytotoxic concentration
Procedure: (§1) The mouse macrophage-derived RAW264.7 cell line was purchased from Sun Yat-Sen University, Guangzhou, China, and maintained at 37°C in a humidified atmosphere containing 5% CO2 in Dulbecco's modified eagle medium (DMEM) supplemented with 10% heat-inactivated fetal bovine serum (FBS), penicillin (100 U/mL), and streptomycin (100 μg/mL). Cells in exponential growth phase were used for experiments.
The cytotoxicity of the isolated compounds toward RAW264.7 was evaluated by a conventional MTT assay as reported previously. RAW264.7 cells (1 × 10^5 cells/well) were inoculated to 96-well plates and incubated for 12 h and then treated with different concentrations of compounds. After additional 24 h incubation, 10 μL of MTT solution ([…]) was added to each well, and the plate was incubated for another 4 h. The medium was discarded and 150 μL of dimethyl sulfoxide (DMSO) was added to each well, solubilizing formazan. After 15 min incubation, absorbance at 570 nm was read using a microplate reader. The percent viability was calculated using the following formula: (1) Cell viability%=[…].
The anti-inflammatory activities of the isolates were tested in vitro for inhibiting the NO and TNF-α production in LPS-induced RAW264.7 cells. Firstly, the cytotoxicity of these compounds cells on the proliferation of RAW264.7 cells was measured by MTT assay. The IC10 value of each compound (Table 1), at which 10% of cells proliferation was inhibited, was calculated with an improved Karber methodology and defined as the highest noncytotoxic concentration. While the dose is ≤IC10, the effect of the isolated compound on RAW264.7 cells could be neglected. In the following experiments, the concentrations of each compound were set at [IC10] × 1, [IC10] × 10^−1, and [IC10] × 10^−2 levels.

[1] = tested on: NO production in LPS-induced RAW264.7 cells; assay: Nitric oxide production in LPS-induced RAW264.7 cells (Griess assay); conditions: for inhibitory effect on LPS-induced NO production (in words): compounds at [IC10] × 1, × 10^−1, × 10^−2
Procedure: as §1
Nitrite accumulation, as an indicator of NO production in the culture medium, was measured with the Griess reagent as reported previously. RAW264.7 cells were plated into 96-well plate at a density of 3 × 10^6 cells/mL. After 12 h incubation, cells were stimulated by LPS (100 ng/mL) with or without samples for 24 h. Subsequently, the supernatant (100 μL) was harvested and mixed with an equal volume of Griess reagent (0.1% N-(1-naphthyl) ethylenediamine dihydrochloride, 1% sulfanilamide, and 2.5% H3PO4) and stood for 15 min at room temperature in the dark. NO production was determined by measuring absorbance at 540 nm and was converted to nitrite concentration by reference to a standard curve generated with sodium nitrite.
Figure 1 Effects of ethanol extract of S. glabra (ESG) and its four subfractions (ESG-1, ESG-2, ESG-3, and ESG-4) on RAW264.7 cells viability and LPS-induced NO production. Cells viability (a) was tested by MTT assay; higher value of optical density at 490 nm means higher cell viability. Nitrite accumulated in cell culture supernatants was determined by Griess assay as an index for NO release (b). Cells were treated with LPS (1 μg/mL) for 24 h in the absence or presence of samples (1.6, 8.0, 40, and 200.0 μg/mL). The data were presented as mean ± S.D. (n = 5). Dexamethasone (DMS) was employed as a positive control. # and ###, respectively, mean P < 0.05 and P < 0.001 compared with control group. ∗, ∗∗, and ∗∗∗, respectively, mean P < 0.05, P < 0.01, and P < 0.001 compared with group treated with LPS alone.
(§2) Figure 4 The inhibitory effects of the isolated compounds on NO (a) and TNF-α (b) productions in LPS-induced RAW264.7 cells. Cells were seeded into 24-well plates and incubated for 12 h and then treated with or without different concentrations of compounds for 24 h (for NO) or […] (for TNF-α). The culture supernatant was analyzed for nitrite and TNF-α production. Results shown are representative of three separate experiments.

[2] = tested on: TNF-α production in LPS-induced RAW264.7 cells; assay: TNF-α production in LPS-induced RAW264.7 cells (ELISA); conditions: for IC50: Mus musculus, LPS-induced RAW264.7 cells; for inhibitory effect on LPS-induced TNF-α production (in words): RAW264.7 cells, compounds at [IC10] × 1, × 10^−1, × 10^−2
Procedure: as §1
RAW264.7 cells (3 × 10^6 cells/mL) were seeded onto 24-well culture plate and incubated for 12 h. The cells were then pretreated with various concentrations of the isolated compounds for 2 h before stimulation with LPS (100 ng/mL) with or without samples for 12 h. Supernatants were then collected and the TNF-α concentrations in the medium were determined using commercially available ESISA kits according to the manufacturer's instructions as described in previous study.
as §2

| SMILES | IC10 values (RAW264.7 cells) [µM] | inhibitory effect on LPS-induced NO production (in words) [1] | IC50 [2] [µM] | inhibitory effect on LPS-induced TNF-α production (in words) [2] | further results |
| --- | --- | --- | --- | --- | --- |
| COC(=O)/C=C/c1ccc(O)c(O)c1 [Comp. 8, trans-caffeic acid methyl ester] | 5.2 ± 3.2 | – | – | – | – |
| COc1cc(C(=O)O)cc(OC)c1O [Comp. 4, syringic acid] | 5.1 ± 4.2 | significant inhibitory effects | – | – | inhibition at 0.5 µM ([1]; Mus musculus, compound at 0.5 μM): ~19%; inhibition at 5.1 µM ([1]; Mus musculus, compound at 5.1 μM): ~25% |
| COc1cc(C(O)C(CO)C(CO)C(O)c2cc(OC)c(O)c(OC)c2)cc(OC)c1O (centres unmarked) [Comp. 5, 1,4-bis(4-hydroxy-3,5-dimethoxyphenyl)-2,3-bis(hydroxymethyl)-1,4-butanediol] | 166.0 ± 9.7 | moderate suppression effects | < 16.6 | high inhibitory effects | – |
| COc1cc(O)cc2c1C(=O)O[C@@H](C)CCCCCCC2 [Comp. 2, lasiodiplodin] | 147.9 ± 15.4 | moderate suppression effects | – | – | – |
| COc1cc([C@H]2OC[C@H]3[C@@H]2CO[C@@H]3c2cc(OC)c(O)c(OC)c2)cc(OC)c1O [Comp. 1, syringaresinol] | 23.9 ± 1.8 | moderate suppression effects | < 2.3 | high inhibitory effects | – |
| O=C1c2c(O)cc(O)cc2O[C@H](c2ccc(O)cc2)[C@H]1O [Comp. 9, dihydrokaempferol] | 139.4 ± 10.3 | lowest inhibitory effects | – | – | inhibition at 139.4 µM ([1]; Mus musculus, compound at level of IC10, 139.4 μM): 21.3% |
| CC1CCCCCCCc2cc(O)cc(O)c2C(=O)O1 (centres unmarked) [Comp. 3, de-O-methyllasiodiplodin] | 154.3 ± 20.5 | moderate suppression effects | – | – | – |
| Oc1ccc(/C=C/c2cc(O)cc(O)c2)cc1 [Comp. 7, trans-resveratrol] | 4.4 ± 5.7 | significant inhibitory effects | < 4.4 | high inhibitory effects | inhibition at 0.4 µM ([1]; Mus musculus, compound at 0.4 μM): ~32%; inhibition at 4.4 µM ([1]; Mus musculus, compound at 4.4 μM): ~48% |
| COc1cc(C2c3c(cc(OC)c(O)c3OC)CC(CO)C2CO)cc(OC)c1O (centres unmarked) [Comp. 6, lyoniresinol] | 238.1 ± 31.6 | lowest inhibitory effects | – | – | inhibition at 238.1 µM ([1]; Mus musculus, compound at level of IC10, 238.1 μM): 32.7% |
